Reference: patent publication US20170304175A1, “COMPOSITION FOR INDUCING FACILITATION OF CELL REJUVENATION COMPRISING GENISTEIN OR EPIGALLOCATECHIN GALLATE” (AMOREPACIFIC CORPORATION, priority 2014, published 2017)

System: melanocytes
Assay: Observation of phenotype of melanocytes with an optical microscope
Assay type: cell-based, Human
Details: long-term exposure (1 μM in medium from passage 7 to passage 11/12), FIGS. 4A-4B
Procedure: Human primary melanocytes (Life Technologies, CA, USA) were cultured in a M-254 medium (Gibco BRL, NY, USA) supplemented with a human melanocyte growth supplement (HMGS; Gibco BRL, NY, USA) in a 5% CO2 incubator at […] on a 100-mm culture plate while replacing the medium every other day until the cells occupy 80% of the plate area and then subcultured on another 100-mm culture plate at a ratio of 1:4.
The melanocytes first placed on the 100-mm culture plate were considered as passage 1 (PA1) and subculturing was performed 11 times (PA12).
As a control group, melanocytes were subcultured to passage 11 and passage 12 without any treatment, and as a test group, the cells were subcultured under the same environment as the control group until passage 6, and then subcultured from passage 7 to passage 11 and passage 12 in a medium containing 1 μM genistein or epigallocatechin gallate (EGCG).

## O=C(O[C@@H]1Cc2c(O)cc(O)cc2O[C@@H]1c1cc(O)c(O)c(O)c1)c1cc(O)c(O)c(O)c1 [epigallocatechin gallate (EGCG), epigallocatechin gallate]
  phenotype of melanocytes of the late cell line: recovered similarly to the cells of the early stage of subculturing

## O=c1c(-c2ccc(O)cc2)coc2cc(O)cc(O)c12 [genistein]
  phenotype of melanocytes of the late cell line: recovered similarly to the cells of the early stage of subculturing
